Test results taken from US20110044938A1 (NYCOMED GMBH, priority 2006, published 2011).

Tests used:
[1] = system: RKO (RKOp27) human colon adenocarcinoma cells; test: Alamar Blue cell viability assay, anti-proliferative/cytotoxic activity on proliferating RKO subclones; format: cell-based; details: RKOp27, 72 h, RKO p27 uninduced (proliferating) cells, value = class bound given in Table A, read-out: −logIC50 RKO p27 uninduced (proliferating) (converted)
Method in brief: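 RKOp27 subclones (5000 cells/well) were exposed 24 h after seeding to semi-log compound dilutions in DMEM with 10% FCS, in quadruplicate, for 72 h at 37 °C. Viability was read by Alamar Blue fluorescence (544/590 nm) relative to untreated cells (1% DMSO medium). IC50 came from concentration-effect curves and is reported as −log IC50 [mol/l].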

[2] = system: subclones of RKO colon adenocarcinoma cells (RKOp27 or RKOp21) arrested by Ponasterone A; test: Alamar Blue cell viability assay, cell cycle specific mode of action: cells arrested by ectopic p27Kip1 induced by Ponasterone A versus proliferating cells; format: cell-based; details: Homo sapiens, RKO p27 induced (arrested) cells, 10 μM Ponasterone A, 72 hours, value = class bound given in Table A, read-out: −logIC50 RKO p27 induced (arrested) (converted)
Method in brief: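 RKOp27 or RKOp21 cells, 15000/well in DMEM/10% FCS, either arrested by p27Kip1 induced with 10 μM Ponasterone A or proliferating without inducer; compound added after 24 h, 72 h at 37° C. Alamar Blue fluorescence (544/590 nm), viability as % of untreated cells; −log IC50 reported.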

Row | SMILES | IC50 [1] [nM] | IC50 [2] [nM]
1 | N#Cc1c(NC(=O)/C=C/c2cccnc2)sc2c1CCC(COC(=O)N1CCC1)C2 (stereo not shown) [Example 79, Azetidine-1-carboxylic acid 3-cyano-2-((E)-3-pyridin-3-yl-allanoylamino)-4,5,6,7-tetrahydro-benzo[b]thiophen-6-ylmethyl ester] | 501 to 2000 | ≥ 100000
2 | COc1cccc(CCC(=O)Nc2sc3c(c2C#N)CCC(OC(=O)NCc2cc(C)on2)C3)c1 (stereo not shown) [Example 224, (5-Methyl-isoxazol-3-ylmethyl)-carbamic acid 3-cyano-2-[3-(3-methoxy-phenyl)-propanoylamino]-4,5,6,7-tetrahydro-benzo[b]thiophen-6-yl ester] | 501 to 2000 | ≥ 100000
3 | N#Cc1c(NC(=O)/C=C/c2cccnc2)sc2c1CCC(OC(=O)NCCO)C2 (stereo not shown) [Example 23, (2-Hydroxy-ethyl)-carbamic acid 3-cyano-2-((E)-3-pyridin-3-yl-allanoylamino)-4,5,6,7-tetrahydro-benzo[b]thiophen-6-yl ester] | 501 to 2000 | ≥ 100000
4 | CCOc1ccccc1/C=C/C(=O)Nc1sc2c(c1C#N)CCC(OC(=O)NCCOC)C2 (stereo not shown) [Example 12, (2-Methoxy-ethyl)-carbamic acid 3-cyano-2-[(E)-3-(2-ethoxy-phenyl)-allanoylamino]-4,5,6,7-tetrahydro-benzo[b]thiophen-6-yl ester] | ≤ 501 | ≥ 50100
5 | N#Cc1c(NC(=O)/C=C/c2cccnc2)sc2c1CCC(OC(=O)NC1CCCC1)C2 (stereo not shown) [Example 110, Cyclopentyl-carbamic acid 3-cyano-2-((E)-3-pyridin-3-yl-allanoylamino)-4,5,6,7-tetrahydro-benzo[b]thiophen-6-yl ester] | ≤ 501 | ≥ 100000
6 | CCOc1ccccc1CCC(=O)Nc1sc2c(c1C#N)CCC(OC(=O)NCCc1cccnc1)C2 (stereo not shown) [Example 166, (2-Pyridin-3-yl-ethyl)-carbamic acid 3-cyano-2-[3-(2-ethoxy-phenyl)-propanoylamino]-4,5,6,7-tetrahydro-benzo[b]thiophen-6-yl ester] | ≤ 501 | ≥ 100000
7 | CCNC(=O)OC1CCc2c(sc(NC(=O)CCc3ccccc3OCC)c2C#N)C1 (stereo not shown) [Example 153, Ethyl-carbamic acid 3-cyano-2-[3-(2-ethoxy-phenyl)-propanoylamino]-4,5,6,7-tetrahydro-benzo[b]thiophen-6-yl ester] | ≤ 501 | ≥ 10000
8 | COCCNC(=O)OCC1CCc2c(sc(NC(=O)CCc3cccc(OC)c3)c2C#N)C1 (stereo not shown) [Example 234, (2-Methoxy-ethyl)-carbamic acid 3-cyano-2-[3-(3-methoxy-phenyl)-propanoylamino]-4,5,6,7-tetrahydro-benzo[b]thiophen-6-ylmethyl ester] | ≤ 501 | ≥ 100000
9 | COc1cccc(CCC(=O)Nc2sc3c(c2C#N)CCC(OC(=O)NCc2csc(C)n2)C3)c1 (stereo not shown) [Example 232, (2-Methyl-thiazol-4-ylmethyl)-carbamic acid 3-cyano-2-[3-(3-methoxy-phenyl)-propanoylamino]-4,5,6,7-tetrahydro-benzo[b]thiophen-6-yl ester] | 501 to 2000 | ≥ 100000
10 | COc1cccc(CCC(=O)Nc2sc3c(c2C#N)CCC(COC(=O)NC2CC2)C3)c1 (stereo not shown) [Example 253, Cyclopropyl-carbamic acid 3-cyano-2-[3-(3-methoxy-phenyl)-propanoylamino]-4,5,6,7-tetrahydro-benzo[b]thiophen-6-ylmethyl ester] | ≤ 501 | ≥ 100000
11 | COc1cccc(CCC(=O)Nc2sc3c(c2C#N)CCC(OC(=O)OCc2cncs2)C3)c1 (stereo not shown) [Example 266, Carbonic acid 3-cyano-2-[3-(3-methoxy-phenyl)-propanoylamino]-4,5,6,7-tetrahydro-benzo[b]thiophen-6-yl ester thiazol-5-ylmethyl ester] | 501 to 2000 | ≥ 50100
12 | CCNC(=O)OC[C@H]1CCc2c(sc(NC(=O)/C=C/c3cccnc3)c2C#N)C1 [Example 9a, (S)-Ethyl-carbamic acid 3-cyano-2-((E)-3-pyridin-3-yl-allanoylamino)-4,5,6,7-tetrahydro-benzo[b]thiophen-6-ylmethyl ester] | ≤ 501 | ≥ 100000
13 | N#Cc1c(NC(=O)/C=C/c2cccnc2)sc2c1CCC(OC(=O)N1CCC[C@H]1CO)C2 (stereo partly drawn) [Example 108, 2-(S)-(Hydroxymethyl) pyrrolidine-1-carboxylic acid 3-cyano-2-((E)-3-pyridin-3-yl-allanoylamino)-4,5,6,7-tetrahydro-benzo[b]thiophen-6-yl ester] | 501 to 2000 | ≥ 100000
14 | CC(CC(=O)Nc1sc2c(c1C#N)CCC(OC(=O)N1CCCC1)C2)c1ccccc1 (stereo not shown) [Example 360, Pyrrolidine-1-carboxylic acid 3-cyano-2-(3-phenyl-butanoylamino)-4,5,6,7-tetrahydro-benzo[b] thiophen-6-yl ester] | ≤ 501 | ≥ 100000
15 | COc1cccc(C(C)CC(=O)Nc2sc3c(c2C#N)CCC(COC(=O)NCc2cn(C)nc2C)C3)c1 (stereo not shown) [Example 339, (1,3-Dimethyl-1H-pyrazol-4-ylmethyl)-carbamic acid 3-cyano-2-[3-(3-methoxy-phenyl)-butanoylamino]-4,5,6,7-tetrahydro-benzo[b] thiophen-6-ylmethyl ester] | 501 to 2000 | ≥ 50100
16 | CC(CC(=O)Nc1sc2c(c1C#N)CCC(OC(=O)NCc1ccccn1)C2)c1ccccc1 (stereo not shown) [Example 287, Pyridin-2-ylmethyl-carbamic acid 3-cyano-2-(3-phenyl-butanoylamino)-4,5,6,7-tetrahydro-benzo[b] thiophen-6-yl ester] | 501 to 2000 | ≥ 10000
17 | COc1cccc(C(C)CC(=O)Nc2sc3c(c2C#N)CCC(OC(=O)NCc2cc(C)no2)C3)c1 (stereo not shown) [Example 362, (3-Methyl-isoxazol-5-ylmethyl)-carbamic acid 3-cyano-2-[3-(3-methoxy-phenyl)-butanoyl-amino]-4,5,6,7-tetrahydro-benzo[b]thiophen-6-yl ester] | 501 to 2000 | ≥ 100000
18 | CCOc1ccccc1/C=C/C(=O)Nc1sc2c(c1C#N)CCC(COC(=O)NCc1ccccn1)C2 (stereo not shown) [Example 15, Pyridin-2-ylmethyl-carbamic acid 3-cyano-2-[(E)-3-(2-ethoxy-phenyl)-allanoylamino]-4,5,6,7-tetrahydro-benzo[b]thiophen-6-ylmethyl ester] | 501 to 2000 | ≥ 100000
19 | Cc1nocc1CNC(=O)OC1CCc2c(sc(NC(=O)/C=C/c3cccnc3)c2C#N)C1 (stereo not shown) [Example 59, (3-Methyl-isoxazol-4-ylmethyl)-carbamic acid 3-cyano-2-((E)-3-pyridin-3-yl-allanoylamino)-4,5,6,7-tetrahydro-benzo[b]thiophen-6-yl ester] | ≤ 501 | ≥ 100000
20 | Cc1cc(CNC(=O)OC2CCc3c(sc(NC(=O)/C=C/c4cccnc4)c3C#N)C2)no1 (stereo not shown) [Example 42, (5-Methyl-isoxazol-3-ylmethyl)-carbamic acid 3-cyano-2-((E)-3-pyridin-3-yl-allanoylamino)-4,5,6,7-tetrahydro-benzo[b]thiophen-6-yl ester] | 501 to 2000 | ≥ 100000
21 | Cn1cnc(CNC(=O)OCC2CCc3c(sc(NC(=O)/C=C/c4cccnc4)c3C#N)C2)c1 (stereo not shown) [Example 44, (1-Methyl-1H-imidazol-4-ylmethyl)-carbamic acid 3-cyano-2-((E)-3-pyridin-3-yl-allanoylamino)-4,5,6,7-tetrahydro-benzo[b]thiophen-6-ylmethyl ester] | ≤ 501 | ≥ 100000
22 | CCOc1ccccc1CCC(=O)Nc1sc2c(c1C#N)CCC(OC(=O)NCc1ccnn1CC)C2 (stereo not shown) [Example 209, (2-Ethyl-2H-pyrazol-3-ylmethyl)-carbamic acid 3-cyano-2-[3-(2-ethoxy-phenyl)-propanoylamino]-4,5,6,7-tetrahydro-benzo[b]thiophen-6-yl ester] | ≤ 501 | ≥ 100000
23 | CCOc1ccccc1CCC(=O)Nc1sc2c(c1C#N)CCC(COC(=O)NCc1nc(C)cs1)C2 (stereo not shown) [Example 214, (4-Methyl-thiazol-2-ylmethyl)-carbamic acid 3-cyano-2-[3-(2-ethoxy-phenyl)-propanoylamino]-4,5,6,7-tetrahydro-benzo[b]thiophen-6-ylmethyl ester] | ≤ 501 | ≥ 100000
24 | N#Cc1c(NC(=O)/C=C/c2cccnc2)sc2c1CCC(OC(=O)N1CC[C@H](O)C1)C2 (stereo partly drawn) [Example 146, (S)-3-Hydroxy-pyrrolidine-1-carboxylic acid 3-cyano-2-((E)-3-pyridin-3-yl-allanoylamino)-4,5,6,7-tetrahydro-benzo[b]thiophen-6-yl ester] | ≤ 501 | ≥ 100000
25 | N#Cc1c(NC(=O)/C=C/c2cccnc2)sc2c1CCC(OC(=O)NCCn1ccnc1)C2 (stereo not shown) [Example 37, (2-Imidazol-1-yl-ethyl)-carbamic acid 3-cyano-2-((E)-3-pyridin-3-yl-allanoylamino)-4,5,6,7-tetrahydro-benzo[b]thiophen-6-yl ester] | 501 to 2000 | ≥ 100000
26 | C=CCN(C)C(=O)OCC1CCc2c(sc(NC(=O)/C=C/c3cccnc3)c2C#N)C1 (stereo not shown) [Example 112, Allyl-methyl-carbamic acid 3-cyano-2-((E)-3-pyridin-3-yl-allanoylamino)-4,5,6,7-tetrahydro-benzo[b]thiophen-6-ylmethyl ester] | ≤ 501 | ≥ 100000
